The target of assay [1] is T1, EPAC1-CNB (Homo sapiens, UniProt O95398).
T1 construct: EPAC1-CNB (amino acids 169–318 of EPAC1); made in house; host or cells: BL-21 Escherichia coli (pGEX-6P-1)
T1 sequence (O95398 169-318 isoform O95398-3): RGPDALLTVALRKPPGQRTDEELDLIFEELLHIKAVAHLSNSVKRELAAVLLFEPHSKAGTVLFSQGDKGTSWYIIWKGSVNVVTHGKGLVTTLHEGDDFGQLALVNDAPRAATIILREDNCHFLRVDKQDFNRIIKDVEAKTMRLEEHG
Description: 8-NBD-cAMP competition assay with EPAC1-CNB. Format: binding. The method, then:
Optimisation of assay conditions was performed in 96 well black assay plates (Greiner). Comparison of reference molecules, dose response curves and pilot screen were done in black, low volume 384 assay plates (Greiner). Liquids were dispensed using a Biomek Fx laboratory automation workstation with a 96-multichannel pipetting head (Beckman Coulter) for optimisation, whereas the Echo® Liquid Handler (Labcyte) and Wellmate automated dispenser (Thermo Matrix) were employed for pilot screens (see library screening).
This was done using the optimised assay conditions developed during the study. Library compounds were transferred from pre-prepared, 1000x stock Echo® 384 LDV source plates (Labcyte) into black, low volume 384 assay plates (Greiner) at 25 nl volumes, using an Echo® Liquid Handler (Labcyte), maintaining 0.1–1% DMSO throughout. EPAC1-CNB (0.8 µM) was immediately added using a Wellmate automated dispenser (Thermo Matrix). Plates were centrifuged at 800 rpm, 10 s, and then incubated for 30 minutes, RT, to promote compound-protein complex formation. […] The assay was incubated at room temperature and the fluorescence intensity at 480/535 nm (ex/em) was measured after 4–15 hours using the Envision plate reader.

For assay [2], the target named is T1, EPAC1-CNB. Particulars: published Kd values shown for comparison; cited from earlier work.
The next assay has as its system protein kinase A (PKA). Description: PKA kinase activity assay in HEK293T cell extracts. The note with it: 1 mM cAMP, compound 0.1 to 100 µM. The assay is classed as biochemical. As to the method:
PKA activity was measured directly in cell extracts using the PKA Kinase Activity Assay Kit (Abcam) following the manufacturer's instructions. […] Cells were washed in ice-cold PBS containing phosphatase inhibitors, scrapped into Eppendorf tubes and centrifuged at 200 × g at 4 °C for 5 minutes. Supernatants were discarded and the cell pellet was re-suspended in Complete Lysis Buffer containing 1 mM DTT, 1 mM PMSF and protease inhibitor cocktail (Roche) and then incubated for 10 minutes on ice (on the rocking platform) followed by vortex and centrifugation at […] at 4 °C for 20 minutes. Cell extracts were then transferred to fresh Eppendorf tubes, assayed for protein content and then stored at -80 °C. […] Next, 10 μl of ATP was added to each well and incubated at 30 °C for 90 min, with gentle shaking. The reaction was stopped by aspirating the contents of each well and then 40 μl of PKA phosphospecific substrate antibody was added to each well and then the plate was covered with plastic wrap and incubated at room temperature for 60 min (with gentle shaking every 20 min). […] Fluorescence was then measured at 480/530 nm. […] PKA activity was then measured in the cell extracts using an ELISA assay according to the manufactures instructions. […]

The next assay deals with T2, EPAC2-CNB (Mus musculus, UniProt Q9EQZ6).
T2 construct: EPAC2-CNB (amino acids 304–453 of EPAC2); made in house; host or cells: BL-21 Escherichia coli (pGEX-6P-1)
T2 sequence (Q9EQZ6 304-453 isoform Q9EQZ6-3): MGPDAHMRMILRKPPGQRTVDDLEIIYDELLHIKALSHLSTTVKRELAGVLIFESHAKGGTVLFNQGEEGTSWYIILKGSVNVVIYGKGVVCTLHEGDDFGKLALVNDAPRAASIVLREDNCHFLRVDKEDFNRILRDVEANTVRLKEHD
Description: Ligand observed NMR (1D and waterLOGSY) with EPAC2-CNB. Format: binding. Particulars: compound 50 µM, protein 2.5 µM. An excerpt: (§1) Given that I942 seems to exert selective agonist properties against EPAC1, but not EPAC2, we next sought to validate whether our isolated ligands can interact with EPAC1 and EPAC2. Ligand observed nuclear magnetic resonance (NMR) is a valuable tool for the identification and validation of small molecule ligands. We therefore used one dimensional proton (1D) and water-ligand observed by gradient spectroscopy (waterLOGSY) NMR to confirm the ability of I942 and I178 to bind to the purified CNBs of EPAC1 and EPAC2, in comparison with the commercially available EPAC1 antagonist, ESI-09[32]. In order to assess ligand/CNB interaction, 1D and waterLOGSY experiments were performed on each compound (50 µM) in the presence or absence of 2.5 µM EPAC-CNB. In the absence of protein, each test compound produced a well-resolved 1D spectrum and a region of each spectrum was chosen to display distinctive spectral peaks originating from the ligand (Fig. 6). In the absence of protein, the corresponding waterLOGSY peaks were small, or absent, due to the negligible signal produced by saturation transfer from water to the freely tumbling small molecule. […] In waterLOGSY spectra, protein-mediated saturation transfer can only occur if the protein-ligand complex has a substantial lifetime. […]
(§2) (A) One dimensional proton (1D) and waterLOGSY (WL) spectra were performed on samples containing hit compound I942 (50 µM) in the absence and presence of EPAC1-CNB, EPAC2-CNB or GST alone, as indicated (2.5 µM). […] Interaction between compound and protein was assessed through comparison of the compound alone and protein-compound sample spectra. […]
(§3) All NMR spectra were recorded on a Bruker AVANCE IIIHD 600 spectrometer equipped with a TCI cryoprobe at 285 K. Test compounds were prepared in deuterated DMSO and diluted to given experimental concentrations in NMR buffer (20 mM Na2PO4, pH 7.0, 50 mM NaCl, 0.1% (w/v) NaN3, 5% (v/v) D2O) with a final DMSO concentration below 0.1%. […] One dimensional proton (1D) and waterLOGSY spectra were recorded for all compounds tested, using pulse sequences as previously described. […]

For another assay, the target named is GST (Schistosoma japonicum, UniProt P08515). Description: Ligand observed NMR (1D and waterLOGSY) with GST alone. Format: binding. Particulars: compound 50 µM, GST 2.5 µM.
Chain of GST (P08515 whole entry): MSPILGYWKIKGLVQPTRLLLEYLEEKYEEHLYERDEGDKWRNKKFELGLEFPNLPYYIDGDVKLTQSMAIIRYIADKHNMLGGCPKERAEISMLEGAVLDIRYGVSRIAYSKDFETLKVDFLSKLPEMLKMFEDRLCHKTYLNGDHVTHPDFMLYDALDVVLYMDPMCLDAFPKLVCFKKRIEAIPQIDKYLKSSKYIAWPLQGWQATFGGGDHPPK
From the text: as §1, §2, §3

For assay [3], the target named is T1, EPAC1-CNB. Description: Ligand observed NMR (1D and waterLOGSY) with EPAC1-CNB. The assay is classed as binding. Particulars: compound 50 µM, protein 2.5 µM.
From the text: as §1, §2, §3

Assay [4] deals with T3, EPAC1 (amino acids 149–881) (Homo sapiens, UniProt O95398).
T3 construct: recombinant EPAC1 (amino acids 149–881); made in house; host or cells: bacteria
T3 sequence (O95398 149-881 isoform O95398-3): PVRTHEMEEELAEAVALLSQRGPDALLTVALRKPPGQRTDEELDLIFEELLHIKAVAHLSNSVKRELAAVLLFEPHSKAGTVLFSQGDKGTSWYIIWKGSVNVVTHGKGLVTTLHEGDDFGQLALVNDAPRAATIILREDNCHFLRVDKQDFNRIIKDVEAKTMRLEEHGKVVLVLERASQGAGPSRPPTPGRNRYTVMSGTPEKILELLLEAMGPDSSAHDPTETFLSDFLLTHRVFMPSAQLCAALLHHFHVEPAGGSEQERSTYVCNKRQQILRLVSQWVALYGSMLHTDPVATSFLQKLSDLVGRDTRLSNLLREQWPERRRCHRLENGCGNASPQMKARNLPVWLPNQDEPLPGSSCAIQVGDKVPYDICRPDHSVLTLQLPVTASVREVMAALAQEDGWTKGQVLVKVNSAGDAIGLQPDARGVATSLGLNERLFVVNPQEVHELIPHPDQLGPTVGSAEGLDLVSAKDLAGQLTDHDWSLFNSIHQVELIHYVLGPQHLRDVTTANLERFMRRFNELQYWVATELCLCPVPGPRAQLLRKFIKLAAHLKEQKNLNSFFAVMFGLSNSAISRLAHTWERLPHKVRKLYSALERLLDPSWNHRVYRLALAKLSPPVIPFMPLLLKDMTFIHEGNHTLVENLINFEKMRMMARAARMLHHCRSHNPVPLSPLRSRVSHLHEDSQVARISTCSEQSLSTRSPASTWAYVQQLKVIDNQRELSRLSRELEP
Description: In vitro GEF activity assay (MANT-GDP dissociation from Rap1), EPAC1. Format: biochemical. The note with it: 500 μM compound, 500 μM cAMP. As to the method:
For this, we used the well-characterised EPAC GEF activity assay. The assay is based on the EPAC-stimulated dissociation of fluorescent MANT-GDP from recombinant Rap1 in the presence of excess non-fluorescent nucleotide.
The data are fitted as single exponential decay with off-set (red lines) to obtain the rate constants kobs, as shown in (b).
EPAC1 and EPAC2 in vitro GEF activities were calculated as previously described. Briefly, recombinant EPAC1 (amino acids 149–881) or EPAC2 (amino acids 280–993) were incubated at 100 nM with recombinant Rap1 (200 nM) preloaded with the fluorescent GDP analogue 2′/3′-O-(N-Methylanthraniloyl)guanosine 5-diphosphate (MANT-GDP) in the presence of 20 μM GDP and then the fluorescence intensity was measured at 360/450 nm (ex/em) over time. […] AC50 or IC50 values were determined from the plots of kobs against the concentration of the agonist and antagonist, respectively Table 1.

Where [5] appears, read: 8-NBD-cAMP 62.5 nM, EPAC1-CNB 0.8 µM, known competitor compounds, read-out: IC50, inhibition of 8-NBD-cAMP fluorescence.
Where [6] appears, read: 7-point dose response, 75 µM top concentration, 0.75% DMSO, read-out: IC50, 8-NBD-cAMP binding assay.

By IC50 is commonly meant the concentration at which inhibition is half-maximal. As usually defined, the Kd is a measure of binding affinity in units of concentration.

Like-named read-outs stand apart in the source and are kept apart here.

Take `Nc1ncnc2c1nc(Sc1ccc(Cl)cc1)n2[C@@H]1O[C@@H]2COP(=O)(O)O[C@H]2[C@H]1O` [8-CPT, 8-CPT-cAMP, reference compound]: at EPAC1-CNB [1] (setting [5]), the IC50 turned out to be 530 nM. Also, the Kd at EPAC1-CNB [2] was 40 nM.
On to `O=S(=O)(NCCNC/C=C/c1ccc(Br)cc1)c1cccc2cnccc12` [H-89, reference compound], for which the “effect on PKA activity induced by cAMP” value with protein kinase A (PKA) is given as “dose-dependent inhibition”.
`CC(C)(C)c1cc(C(=O)C(C#N)=NNc2cccc(Cl)c2)no1` [ESI-09, 3-(5-tert-butyl-isoxazol-3-yl)-2-[(3-chloro-phenyl)-hydrazonol]-3-oxo-propionitrile, reference compound]: the NMR interaction result at EPAC2-CNB and on EPAC1-CNB [3] was “attenuated” each time. The “NMR interaction with GST alone” value at GST is recorded as “may interact non-specifically with GST”.
In the case of “N-[(4-chlorophenyl)sulfonyl]-2-(1-naphthyloxy)acetamide [I288]”, the IC50 at EPAC1-CNB [1] (setting [6]) was approximately 70000 nM.
As to `CC(=O)Nc1cccc(OCC(=O)NS(=O)(=O)c2ccc(C)cc2)c1` [I516, 2-[3-(acetylamino)phenoxy]-N-[(4-methylphenyl)sulfonyl]acetamide], the 50% inhibitory concentration (IC50) on EPAC1-CNB [1] (setting [6]) is more than 75000 nM. The “inhibition of cAMP-induced EPAC1 activity” value in assay [4] is recorded as “no detectable inhibitory effect”.
On to `CO[C@@H]1[C@@H]2OP(=O)(O)OC[C@H]2O[C@H]1n1c(Sc2ccc(Cl)cc2)nc2c(N)ncnc21` [compound 007, 8-pCPT-2′-O-Me-cAMP, reference compound], for which the IC50 on EPAC1-CNB [1] (setting [5]) is 1670 nM. In addition, the Kd on EPAC1-CNB [2] was 630 nM.

Source of the values: publication PMC5428521, “Identification of a Novel, Small Molecule Partial Agonist for the Cyclic AMP Sensor, EPAC1” (Scientific Reports, 2017).
